Measured values published in patent publication US20190367516A1 (Bayer Pharma Aktiengesellschaft, priority 2015, published 2019).
Read-outs that look alike come from different tables or passages of the source.

Columns and labels:
[1] = target: T1, human M2 receptor (Homo sapiens, UniProt P08172); type: cell-based; settings: α >1 = positive cooperativity
T1 sequence (P08172 1-466): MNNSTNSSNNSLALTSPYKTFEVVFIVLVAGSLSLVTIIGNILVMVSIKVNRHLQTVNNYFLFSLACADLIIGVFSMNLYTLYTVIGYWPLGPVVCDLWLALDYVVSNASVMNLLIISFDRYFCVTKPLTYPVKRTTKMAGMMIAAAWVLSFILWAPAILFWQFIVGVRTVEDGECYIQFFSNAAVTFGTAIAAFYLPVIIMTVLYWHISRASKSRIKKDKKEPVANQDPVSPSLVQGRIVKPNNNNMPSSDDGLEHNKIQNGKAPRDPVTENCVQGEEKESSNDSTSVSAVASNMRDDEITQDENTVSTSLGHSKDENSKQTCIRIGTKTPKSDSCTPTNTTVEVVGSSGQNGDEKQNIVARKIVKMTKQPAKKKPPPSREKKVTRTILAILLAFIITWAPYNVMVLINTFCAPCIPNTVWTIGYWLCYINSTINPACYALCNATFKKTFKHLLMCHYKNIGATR

[2] = target: T1, human M2 receptor
[3] = shift in the acetylcholine dose-response curve (Allosteric EC50 shift, GraphPad PRISM)
[4] = Receptor activity EC50, M2-GIRK1/4 activation test, acetylcholine at EC20, allosteric potency, in some cases mean values from two or more determinations
[5] = shift of acetylcholine dose-response curve (Allosteric EC50 shift)
[6] = Receptor activity EC50, allosteric potency at EC20 acetylcholine, M2-GIRK1/4 reporter cells, in some cases mean of two or more determinations
[7] = read-out: Efficiency, boosting of the acetylcholine effect at EC20 acetylcholine concentration, M2-GIRK1/4 reporter cells

Row | SMILES | Cooperativity (alpha factor) [1, 3] | EC50 [2, 4] [nM] | Cooperativity (alpha factor) [1, 5] | EC50 [2, 6] [nM] | Emax [2, 7] [%] | Emax ([2]; read-out: Efficiency) [%]
1 | O=C(NC12CC(C1)C2)c1cn(-c2c(F)cc(F)cc2F)c2nc(N3C[C@@H](O)CC3=O)ccc2c1=O [Example 358, N-(Bicyclo[1.1.1]pent-1-yl)-7-[(4S)-4-hydroxy-2-oxopyrrolidin-1-yl]-4-oxo-1-(2,4,6-trifluorophenyl)-1,4-dihydro-1,8-naphthyridine-3-carboxamide] | 31 | 24 | – | – | – | –
2 | O=C(N[C@@H](C1CC1)C(F)(F)F)c1cn(-c2c(F)cc(F)cc2F)c2nc(N3CCN(CCO)C3=O)ccc2c1=O [Example 363, N-[(1 S)-1-Cyclopropyl-2,2,2-trifluoroethyl]-7-[3-(2-hydroxyethyl)-2-oxoimidazolidin-1-yl]-4-oxo-1-(2,4,6-trifluorophenyl)-1,4-dihydro-1,8-naphthyridine-3-carboxamide] | 28 | 45 | – | – | – | –
3 | O=C(N[C@@H](C1CC1)C(F)(F)F)c1cn(-c2c(F)cc(F)cc2F)c2nc(N3CCCN(CCO)C3=O)ccc2c1=O [Example 364, N-[(1 S)-1-Cyclopropyl-2,2,2-trifluoroethyl]-7-[3-(2-hydroxyethyl)-2-oxotetrahydropyrimidin-1(2H)-yl]-4-oxo-1-(2,4,6-trifluorophenyl)-1,4-dihydro-1,8-naphthyridine-3-carboxamide] | 25 | 16 | – | – | – | –
4 | CC[C@H](NC(=O)c1cn(-c2c(F)cc(F)cc2F)c2nc(N3CCCN(CCO)C3=O)ccc2c1=O)C(F)(F)F [Example 365, 7-[3-(2-Hydroxyethyl)-2-oxotetrahydropyrimidin-1(2H)-yl]-4-oxo-N-[(2S)-1,1,1-trifluorobutan-2-yl]-1-(2,4,6-trifluorophenyl)-1,4-dihydro-1,8-naphthyridine-3-carboxamide] | 20 | 21 | – | – | – | –
5 | O=C(NC12CC(C1)C2)c1cn(-c2c(F)cc(F)cc2F)c2nc(N3C[C@@H](O)[C@H](O)C3)ccc2c1=O [Example 366, N-(Bicyclo[1.1.1]pent-1-yl)-7-[(3R,4R)-3,4-dihydroxypyrrolidin-1-yl]-4-oxo-1-(2,4,6-trifluorophenyl)-1,4-dihydro-1,8-naphthyridine-3-carboxamide] | 36 | 35 | – | – | – | –
6 | CC(C)(C)[C@H](NC(=O)c1cn(-c2c(F)cc(F)cc2F)c2nc(N3C[C@@H](O)[C@H](O)C3)ccc2c1=O)C(F)(F)F [Example 369, 7-[(3R,4R)-3,4-Dihydroxypyrrolidin-1-yl]-4-oxo-N-[(2S)-1,1,1-trifluoro-3,3-dimethylbutan-2-yl]-1-(2,4,6-trifluorophenyl)-1,4-dihydro-1,8-naphthyridine-3-carboxamide] | 39 | 8 | – | – | – | 95
7 | O=C(NC12CC(C(F)(F)F)(C1)C2)c1cn(-c2c(F)cc(F)cc2F)c2nc(N3C[C@@H](O)[C@H](O)C3)ccc2c1=O [Example 371, 7-[(3R,4R)-3,4-Dihydroxypyrrolidin-1-yl]-4-oxo-N-[3-(trifluoromethyl)bicyclo[1.1.1]pent-1-yl]-1-(2,4,6-trifluorophenyl)-1,4-dihydro-1,8-naphthyridine-3-carboxamide] | 36 | 18 | – | – | – | –
8 | O=C(NC12CC(C(F)(F)F)(C1)C2)c1cn(-c2c(F)cc(F)cc2F)c2nc(N3C[C@@H](O)CC3=O)ccc2c1=O [Example 372, 7-[(4S)-4-Hydroxy-2-oxopyrrolidin-1-yl]-4-oxo-N-[3-(trifluoromethyl)bicyclo[1.1.1]pent-1-yl]-1-(2,4,6-trifluorophenyl)-1,4-dihydro-1,8-naphthyridine-3-carboxamide] | 34 | 20 | – | – | – | –
9 | CC[C@H](NC(=O)c1cn(-c2c(F)cc(F)cc2F)c2nc(N3CCN/C3=N\C(=O)OC)ccc2c1=O)C(F)(F)F [Example 377, Methyl {1-[5-oxo-6-{[(2S)-1,1,1-trifluorobutan-2-yl]carbamoyl}-8-(2,4,6-trifluorophenyl)-5,8-dihydro-1,8-naphthyridin-2-yl]imidazolidin-2-ylidene}carbamate] | 34 | 48 | – | – | – | –
10 | CN(CCO)c1ccc2c(=O)c(C(=O)N[C@@H](C3CC3)C(F)(F)F)cn(-c3c(F)cc(F)cc3F)c2n1 [Example 384, N-[(1S)-1-Cyclopropyl-2,2,2-trifluoroethyl]-7-[(2-hydroxyethyl)(methyl)amino]-4-oxo-1-(2,4,6-trifluorophenyl)-1,4-dihydro-1,8-naphthyridine-3-carboxamide] | 22 | 28 | – | – | – | –
11 | CN(CC(=O)O)c1ccc2c(=O)c(C(=O)N[C@@H](C3CC3)C(F)(F)F)cn(-c3c(F)cc(F)cc3F)c2n1 [Example 385, N-[6-{[(1S)-1-Cyclopropyl-2,2,2-trifluoroethyl]carbamoyl}-5-oxo-8-(2,4,6-trifluorophenyl)-5,8-dihydro-1,8-naphthyridin-2-yl]-N-methylglycine] | 11 | 68 | – | – | – | –

Further lines, with some results ahead:

Row | Cooperativity (alpha factor) [1, 3] | EC50 [2, 4] [nM] | Cooperativity (alpha factor) [1, 5] | EC50 [2, 6] [nM] | Emax [2, 7] [%] | SMILES | Emax ([2]; read-out: Efficiency) [%]
12 | – | – | 29 | 17 | 92 | O=C(NC12CC(C1)C2)c1cn(-c2c(F)cc(F)cc2Cl)c2nc(N3C[C@@H](O)CC3=O)ccc2c1=O [Example 396, N-(Bicyclo[1.1.1]pent-1-yl)-1-(2-chloro-4,6-difluorophenyl)-7-[(4S)-4-hydroxy-2-oxopyrrolidin-1-yl]-4-oxo-1,4-dihydro-1,8-naphthyridine-3-carboxamide] | –
13 | – | – | 26 | 10 | 100 | CC[C@H](NC(=O)c1cn(-c2c(F)cc(F)cc2Cl)c2nc(N3C[C@@H](O)CC3=O)ccc2c1=O)C(F)(F)F [Example 398, 1-(2-Chloro-4,6-difluorophenyl)-7-[(4S)-4-hydroxy-2-oxopyrrolidin-1-yl]-4-oxo-N-[(2S)-1,1,1-trifluorobutan-2-yl]-1,4-dihydro-1,8-naphthyridine-3-carboxamide] | –
14 | – | – | 18 | 25 | 97.5 | O=C(NC12CC(C1)C2)c1cn(-c2c(F)cc(F)cc2Cl)c2nc(N3C[C@@H](O)[C@H](O)C3)ccc2c1=O [Example 402, N-(Bicyclo[1.1.1]pent-1-yl)-1-(2-chloro-4,6-difluorophenyl)-7-[(3R,4R)-3,4-dihydroxypyrrolidin-1-yl]-4-oxo-1,4-dihydro-1,8-naphthyridine-3-carboxamide] | –
15 | – | – | 22 | 19 | 99.5 | C[C@H](NC(=O)c1cn(-c2c(F)cc(F)cc2Cl)c2nc(N3C[C@@H](O)CC3=O)ccc2c1=O)C(F)(F)F [Example 409, 1-(2-Chloro-4,6-difluorophenyl)-7-[(4S)-4-hydroxy-2-oxopyrrolidin-1-yl]-4-oxo-N-[(2S)-1,1,1-trifluoropropan-2-yl]-1,4-dihydro-1,8-naphthyridine-3-carboxamide] | –
16 | – | – | 29 | 9 | 98.4 | C[C@@H]1CN(c2ccc3c(=O)c(C(=O)N[C@@H](C4CC4)C(F)(F)F)cn(-c4c(F)cc(F)cc4F)c3n2)C(=O)N1 [Example 437, N-[(1S)-1-Cyclopropyl-2,2,2-trifluoroethyl]-7-[(4R)-4-methyl-2-oxoimidazolidin-1-yl]-4-oxo-1-(2,4,6-trifluorophenyl)-1,4-dihydro-1,8-naphthyridine-3-carboxamide] | –
17 | – | – | 34 | 15 | 91 | C[C@H]1CN(c2ccc3c(=O)c(C(=O)N[C@@H](C4CC4)C(F)(F)F)cn(-c4c(F)cc(F)cc4F)c3n2)C(=O)N1 [Example 449, N-[(1 S)-1-Cyclopropyl-2,2,2-trifluoroethyl]-7-[(4S)-4-methyl-2-oxoimidazolidin-1-yl]-4-oxo-1-(2,4,6-trifluorophenyl)-1,4-dihydro-1,8-naphthyridine-3-carboxamide] | –
18 | – | – | 21 | 8 | 91 | CC1(C)CN(c2ccc3c(=O)c(C(=O)N[C@@H](C4CC4)C(F)(F)F)cn(-c4c(F)cc(F)cc4F)c3n2)C(=O)N1 [Example 451, N-[(1 S)-1-Cyclopropyl-2,2,2-trifluoroethyl]-7-(4,4-dimethyl-2-oxoimidazolidin-1-yl)-4-oxo-1-(2,4,6-trifluorophenyl)-1,4-dihydro-1,8-naphthyridine-3-carboxamide] | –
19 | – | – | 25 | 13 | 100 | C[C@@H]1CN(c2ccc3c(=O)c(C(=O)NC(C)(C)C(F)F)cn(-c4c(F)cc(F)cc4F)c3n2)C(=O)N1 [Example 452, N-(1,1-Difluoro-2-methylpropan-2-yl)-7-[(4R)-4-methyl-2-oxoimidazolidin-1-yl]-4-oxo-1-(2,4,6-trifluorophenyl)-1,4-dihydro-1,8-naphthyridine-3-carboxamide] | –
20 | – | – | 32 | 9 | 92 | CC[C@H](NC(=O)c1cn(-c2c(F)cc(F)cc2F)c2nc(N3C[C@@H](C)NC3=O)ccc2c1=O)C(F)(F)F [Example 456, 7-[(4R)-4-Methyl-2-oxoimidazolidin-1-yl]-4-oxo-N-[(2S)-1,1,1-trifluorobutan-2-yl]-1-(2,4,6-trifluorophenyl)-1,4-dihydro-1,8-naphthyridine-3-carboxamide] | –
